Assay results: patent publication US10919893B2, “Process for the preparation of crystalline form C of avibactam sodium” (Sandoz AG, priority 2017, dated 2021)
Counter-ions that a name gives are not always drawn.

Legend:
[1] = cited from earlier work
[2] = solid-state stability of avibactam forms against moisture, temperature stress and storage; assay type: physicochemical
[3] = system: bacteria; conditions: at clinically relevant doses; cited from earlier work

NC(=O)[C@@H]1CC[C@@H]2CN1C(=O)N2OS(=O)(=O)O [form C, avibactam sodium]
polymorphic stability (conversion to other crystalline forms) ([1]; ambient conditions and conditions of manufacturing of solid pharmaceutical dosage forms): does not convert to other crystalline forms

NC(=O)[C@@H]1CC[C@@H]2CN1C(=O)N2OS(=O)(=O)O [form A, avibactam sodium]
behaviour upon further temperature stress [2]: dehydrates to the anhydrous form B

NC(=O)[C@@H]1CC[C@@H]2CN1C(=O)N2OS(=O)(=O)O [Avibactam, [(2S,5R)-2-carbamoyl-7-oxo-1,6-diazabicylco[3.2.1]octan-6-yl] hydrogen sulfate]
antibacterial activity in itself [3]: no antibacterial activity

NC(=O)[C@@H]1CC[C@@H]2CN1C(=O)N2OS(=O)(=O)O [form E, avibactam sodium]
temperature above which the form dehydrates to monohydrate form A [2]: above 60 °C
relative humidity above which the form is particularly stable ([1]; per WO 2011/042560 A1): > 70%
stability during long storage and at higher temperature ([1]; per WO 2011/042560 A1): tends to lose water and to hydrolyze
